Values quoted from earlier work as cited in patent EP0225409A1, “Organic amine phosphonic acid complexes for the treatment of calcific tumors” (THE DOW CHEMICAL COMPANY, priority 1985, dated 1987).

Conditions: 24 hours after injection

- injected dose present in the thyroid: 0.1%
SMILES: NC(c1ccc(O)c([131I])c1)(P(=O)(O)O)P(=O)(O)O [α-amino-(3-iodo-4-hydroxybenzylidene)diphosphonate]
